SMILES strings stand for the structures.

Cav2.3, sequence (Q15878 1-2270 isoform Q15878-3): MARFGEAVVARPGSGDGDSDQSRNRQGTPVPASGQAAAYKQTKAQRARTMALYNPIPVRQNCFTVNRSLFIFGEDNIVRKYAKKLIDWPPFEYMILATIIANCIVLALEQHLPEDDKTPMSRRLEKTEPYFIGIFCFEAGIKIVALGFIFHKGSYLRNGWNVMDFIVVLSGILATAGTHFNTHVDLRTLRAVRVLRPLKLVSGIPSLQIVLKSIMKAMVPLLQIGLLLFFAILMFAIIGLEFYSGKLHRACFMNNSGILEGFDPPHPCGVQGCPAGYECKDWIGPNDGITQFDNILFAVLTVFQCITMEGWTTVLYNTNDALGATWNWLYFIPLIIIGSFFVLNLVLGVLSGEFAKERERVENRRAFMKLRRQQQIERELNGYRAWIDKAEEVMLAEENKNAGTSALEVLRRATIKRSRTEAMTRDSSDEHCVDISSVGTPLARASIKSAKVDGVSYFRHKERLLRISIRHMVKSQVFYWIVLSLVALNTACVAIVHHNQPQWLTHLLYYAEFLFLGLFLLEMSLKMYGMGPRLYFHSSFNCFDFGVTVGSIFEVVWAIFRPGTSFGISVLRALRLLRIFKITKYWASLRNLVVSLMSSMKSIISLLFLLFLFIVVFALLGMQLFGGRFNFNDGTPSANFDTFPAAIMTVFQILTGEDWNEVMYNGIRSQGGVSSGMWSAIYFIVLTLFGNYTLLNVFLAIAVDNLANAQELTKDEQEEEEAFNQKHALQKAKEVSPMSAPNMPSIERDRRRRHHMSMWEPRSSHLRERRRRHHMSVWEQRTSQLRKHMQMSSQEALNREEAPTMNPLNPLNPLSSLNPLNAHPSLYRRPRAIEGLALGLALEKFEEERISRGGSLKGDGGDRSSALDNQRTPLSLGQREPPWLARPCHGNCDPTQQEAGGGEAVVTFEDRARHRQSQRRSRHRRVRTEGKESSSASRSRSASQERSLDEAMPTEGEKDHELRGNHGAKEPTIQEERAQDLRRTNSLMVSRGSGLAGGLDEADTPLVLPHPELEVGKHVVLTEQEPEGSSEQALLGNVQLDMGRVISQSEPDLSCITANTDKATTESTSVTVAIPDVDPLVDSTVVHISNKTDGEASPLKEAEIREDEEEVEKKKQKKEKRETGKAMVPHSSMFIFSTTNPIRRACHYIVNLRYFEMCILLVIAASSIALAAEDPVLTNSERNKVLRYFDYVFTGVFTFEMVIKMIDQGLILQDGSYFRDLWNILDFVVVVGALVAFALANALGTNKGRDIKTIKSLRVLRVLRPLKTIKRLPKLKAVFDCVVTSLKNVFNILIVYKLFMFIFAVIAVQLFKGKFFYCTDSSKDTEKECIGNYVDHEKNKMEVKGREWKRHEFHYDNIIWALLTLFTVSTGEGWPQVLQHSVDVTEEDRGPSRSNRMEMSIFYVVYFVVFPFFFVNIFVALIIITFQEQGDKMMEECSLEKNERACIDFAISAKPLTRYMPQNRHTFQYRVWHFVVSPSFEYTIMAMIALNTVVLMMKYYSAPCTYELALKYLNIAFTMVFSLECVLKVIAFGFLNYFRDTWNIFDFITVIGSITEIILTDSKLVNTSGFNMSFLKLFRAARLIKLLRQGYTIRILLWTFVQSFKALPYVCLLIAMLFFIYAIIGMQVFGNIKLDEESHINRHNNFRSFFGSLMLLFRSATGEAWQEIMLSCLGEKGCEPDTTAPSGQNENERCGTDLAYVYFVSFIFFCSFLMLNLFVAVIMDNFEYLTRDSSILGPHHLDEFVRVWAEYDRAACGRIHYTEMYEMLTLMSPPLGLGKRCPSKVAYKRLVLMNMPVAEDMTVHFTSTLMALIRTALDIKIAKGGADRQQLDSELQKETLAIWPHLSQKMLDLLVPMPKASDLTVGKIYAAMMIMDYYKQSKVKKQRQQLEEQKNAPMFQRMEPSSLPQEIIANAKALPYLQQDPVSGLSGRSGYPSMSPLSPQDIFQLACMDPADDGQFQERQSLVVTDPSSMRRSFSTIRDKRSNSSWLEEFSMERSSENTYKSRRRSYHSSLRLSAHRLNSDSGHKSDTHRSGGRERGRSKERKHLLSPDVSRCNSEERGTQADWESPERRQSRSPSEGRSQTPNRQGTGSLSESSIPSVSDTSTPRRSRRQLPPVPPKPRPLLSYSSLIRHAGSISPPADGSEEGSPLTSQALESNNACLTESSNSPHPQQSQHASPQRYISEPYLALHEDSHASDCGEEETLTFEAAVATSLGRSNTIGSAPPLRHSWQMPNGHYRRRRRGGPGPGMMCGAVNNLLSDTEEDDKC

The assay has as its target Cav2.3 (Homo sapiens, UniProt Q15878). The assay can be described thus: Human Cav2.3 channel calcium-influx assay. In kind it is cell-based. The note with it: HEK-293 T-Rex/Kir2.1 cells with inducible Cav2.3e-β4-α2δ1; Fluo8 fluorescence; 8-point dose response from 30 μM; no pluronic acid; read-out: Cav2.3 (pIC50) (converted). Here is the method: HEK-293 T-Rex cells were transfected with pcDNA3.1-Kir2.1 to generate a stable cell line. After antibiotic selection, the obtained stable pools were analysed using FLIPR^TETRA(membrane potential assay), and a limiting dilution was performed and a HEK-293 T-Rex/Kir2.1 clone was selected. The clone was transfected with pcDNA3.1-Cav2.3e and pBud-Cav-β4-α2δ1 to generate a stable cell line where the Cav2.3e expression is inducible. After antibiotic selection, functional clone pool analysis and two successive limiting dilutions, the final clone underwent a qPCR analysis and a biophysical and pharmacological validation using patch-clamp.
A compound plate, containing 10 test compounds in eight-points dose response with n=4, was prepared. Test compounds dose response curves were prepared in automated fashion in 100% DMSO at CyBio Felix and starting from a stock solution in 100% DMSO; a defined volume was serially moved into destination wells pre-filled with the desired DMSO volume; stock solution concentration volumes were dependent on the final compounds concentrations to be tested and the final DMSO content used in the assay. For the assay test compounds dose response curves ranged from 30 μM and half log dilution with 0.3% final DMSO. In order to obtain the 8-points dose response curve all the concentrations were created by starting from a 10 mM DMSO stock solution and then moving 9.5 μL into a destination well pre-filled with 20.5 μL of 100% DMSO and repeating this step seven times. This initial step was done into 96 MTP plates, 10 compounds/plate. One 384 MTP was then reformatted to contain all the 10 compounds at 8 concentrations, quadruplicate data points. This so obtained 384 MTP compound plate served as source plate in a “mother to child” process with a CyBi®-Well dispenser in which 0.7 μL of compounds were moved into a destination plate pre-filled with 57.6 μL of Tyrode's buffer 0 mM K^+, thus obtaining 4× concentrated compounds solution. In columns 1-2 and 23-24 the control wells were added. Both “source” compound plate and “destination” compound plate were barcoded and a relationship between the two plates was thus generated.
The day before the experiment, cells were detached by gentle wash with DPBS, followed by 5 min incubation at 37° C. with Trypsin solution. Detached cells were diluted with OptiMEM+Doxycycline at 0.2 μg/mL, counted and plated in Poly-D-Lysine coated black/clear bottom (15.000 c/well in 20 μl/well) by the use of a MATRIX WellMate dispenser. Plates were placed into a humidified incubator at 37° C. with 5% CO2 until the experimental day. 24 h after seeding 10 μL/well of 1.5× Fluo8 NW dye solution prepared in Tyrode's buffer 0 mM K^+ were added on top of the seeding medium. Cell plates were incubated for 40-60 min at RT in the dark. We then Injected off-line 10 μL/well of test compounds and controls 4× concentrated in Tyrode's Buffer 0 mM K+ with the CyBi®-Well instrument. Cell plates were incubated 3 minutes at RT. Finally, we injected 20 μL/well of 3× concentrated activator solution (K20-Na130-Ca2 buffer: 20 mM KCl, 130 mM NaCl, 2 mM CaCl2, 10 mM HEPES, 10 mM Glucose, final concentrations, prepared starting from “K0-Na150-Ca2” and “K150-Na0-Ca2” buffers) at FDSS7000EX instrument and read emitted fluorescence for 130 seconds.
Data analysis was performed with Genedata Screener® software and reported compounds activity as % effect in relation to the normalization standards. The Kinetic Response Value (KRV) is calculated as follows:
KRV=Maximal fluorescence recorded from second 5 to second 130 minus baseline fluorescence, computed as average from second 1 to second 2, of the kinetic trace. The KRV was normalized versus Neutral Controls and Inhibitor Controls in order to obtain the Activity[%] for each well. […] Therefore, the compound activity values were scaled (based on the two references) to a common range (two-point normalization). […]
As for `CC(C)N1Cc2ccc(S(=O)(=O)N(C)[C@@H](C)c3ccccc3)cc2CC1=O` [Example 39, (S)-2-isopropyl-N-methyl-3-oxo-N-(1-phenylethyl)-1,2,3,4-tetrahydroisoquinoline-6-sulfonamide], the IC50 was 11.7 µM.

As for `CC(C)N1CCc2cc(S(=O)(=O)N(C)[C@@H](C)c3ccccc3)ccc2C1=O` [Example 37, (S)-2-isopropyl-N-methyl-1-oxo-N-(1-phenylethyl)-1,2,3,4-tetrahydroisoquinoline-6-sulfonamide], the IC50 is 6.46 µM.

Take `CCN([C@H](C)c1ccccc1)S(=O)(=O)c1ccc2c(c1)CCN(C(=O)C1CC1)C2` [Example 27, (R)-2-(cyclopropanecarbonyl)-N-ethyl-N-(1-phenylethyl)-1,2,3,4-tetrahydroisoquinoline-6-sulfonamide]: the IC50 is 3.63 µM.

On to `CC(C)C(=O)N1CCc2ccc(S(=O)(=O)N(C)C3(c4ccc(F)cc4)COC3)cc2C1` [Example 29, N-(3-(4-fluorophenyl)oxetan-3-yl)-2-isobutyryl-N-methyl-1,2,3,4-tetrahydroisoquinoline-7-sulfonamide], for which the IC50 is 7.08 µM.

Regarding `CCN([C@@H](C)c1ccc(F)cc1)S(=O)(=O)c1ccc2c(c1)CN(C(=O)C(C)(C)F)CC2` [Example 19, (S)-N-ethyl-2-(2-fluoro-2-methylpropanoyl)-N-(1-(4-fluorophenyl)ethyl)-1,2,3,4-tetrahydroisoquinoline-7-sulfonamide], the IC50 is 0.575 µM.

As to `CCN([C@@H](C)c1ccc(F)cc1)S(=O)(=O)c1cc2c(cn1)CN(C(=O)C1CC1)CC2` [Example 34, (S)-7-(cyclopropanecarbonyl)-N-ethyl-N-(1-(4-fluorophenyl)ethyl)-5,6,7,8-tetrahydro-2,7-naphthyridine-3-sulfonamide], the IC50 is 3.02 µM.

As to `CCN([C@@H](c1ccc(F)cc1)C(F)(F)F)S(=O)(=O)c1ccc2c(c1)CN(C(=O)C1CC1)CC2` [Example 47, (S)-2-(Cyclopropanecarbonyl)-N-ethyl-N-(2,2,2-trifluoro-1-(4-fluorophenyl)ethyl)-1,2,3,4-tetrahydroisoquinoline-7-sulfonamide], the IC50 is 4.57 µM.

With `CC(C)C(=O)N1CCc2ccc(S(=O)(=O)N(CCF)[C@@H](c3ccc(F)cc3)C(F)(F)F)cc2C1` [Example 50, (S)-N-(2-fluoroethyl)-2-isobutyryl-N-(2,2,2-trifluoro-1-(4-fluorophenyl)ethyl)-1,2,3,4-tetrahydroisoquinoline-7-sulfonamide], the IC50 is 3.31 µM.

`CCN([C@@H](C)c1ccc(F)cc1)S(=O)(=O)c1cnc2c(c1)CCN(C(=O)C1CC1)C2` [Example 32, (S)-7-(cyclopropanecarbonyl)-N-ethyl-N-(1-(4-fluorophenyl)ethyl)-5,6,7,8-tetrahydro-1,7-naphthyridine-3-sulfonamide]: the IC50 is 2.29 µM.

As for `CCN([C@@H](C)c1ccc(F)cc1)S(=O)(=O)c1ccc2c(c1)CN(C(=O)C1CC1)CC2` [Example 13, (S)-2-(cyclopropanecarbonyl)-N-ethyl-N-(1-(4-fluorophenyl)ethyl)-1,2,3,4-tetrahydroisoquinoline-7-sulfonamide], the IC50 was 0.912 µM.

Take `CC(C)C(=O)N1CCc2ccc(S(=O)(=O)N(C)[C@@H](C)c3ccccc3)cc2CC1` [Example 36, (S)-3-isobutyryl-N-methyl-N-(1-phenylethyl)-2,3,4,5-tetrahydro-1H-benzo[d]azepine-7-sulfonamide]: the IC50 is 1.95 µM.

Consider `CC(C)C(=O)N1CCCc2cc(S(=O)(=O)N(C)[C@@H](C)c3ccccc3)ccc2C1` [Example 35, (S)-2-Isobutyryl-N-methyl-N-(1-phenylethyl)-2,3,4,5-tetrahydro-1H-benzo[c]azepine-7-sulfonamide], for which the IC50 was 3.16 µM.

Turning to `CCN([C@@H](C)c1ccc(F)cc1)S(=O)(=O)c1cc(F)c2c(c1)CCN(C(=O)C1CC1)C2` [Example 22, (S)-2-(cyclopropanecarbonyl)-N-ethyl-8-fluoro-N-(1-(4-fluorophenyl)ethyl)-1,2,3,4-tetrahydroisoquinoline-6-sulfonamide], the IC50 is 0.955 µM.

In the case of `CCN(C1(c2ccc(F)cc2)COC1)S(=O)(=O)c1ccc2c(c1)CN(C(=O)C(C)C)CC2` [Example 28, N-ethyl-N-(3-(4-fluorophenyl)oxetan-3-yl)-2-isobutyryl-1,2,3,4-tetrahydroisoquinoline-7-sulfonamide], the IC50 was 3.8 µM.

Turning to `CCN(C1(c2ccc(F)cc2)COC1)S(=O)(=O)c1ccc2c(c1)CCN(C(=O)C(C)C)C2` [Example 30, N-ethyl-N-(3-(4-fluorophenyl)oxetan-3-yl)-2-isobutyryl-1,2,3,4-tetrahydroisoquinoline-6-sulfonamide], the IC50 was 6.76 µM.

`CCN(C(c1ccc(F)cc1)C(F)(F)F)S(=O)(=O)c1ccc2c(c1)CN(C(=O)C(C)C)CC2` (centres unmarked) [Example 5, N-ethyl-2-isobutyryl-N-(2,2,2-trifluoro-1-(4-fluorophenyl)ethyl)-1,2,3,4-tetrahydroisoquinoline-7-sulfonamide]: the IC50 is 0.437 µM.

Take `CC(C)C(=O)N1CCc2ccc(S(=O)(=O)NCC(C)c3ccc(F)cc3)cc2C1` (single isomer, unassigned) [Example 17, N-(2-(4-fluorophenyl)propyl)-2-isobutyryl-1,2,3,4-tetrahydroisoquinoline-7-sulfonamide]: the IC50 is 6.17 µM.

Turning to `CCN([C@@H](c1ccc(F)cc1)C(F)(F)F)S(=O)(=O)c1ccc2c(c1)CN(C(=O)C(C)(C)F)CC2` [Example 42, (S)-N-ethyl-2-(2-fluoro-2-methylpropanoyl)-N-(2,2,2-trifluoro-1-(4-fluorophenyl)ethyl)-1,2,3,4-tetrahydroisoquinoline-7-sulfonamide], the IC50 is 2.63 µM.

Regarding `CCN([C@@H](C)c1ccc(C(F)(F)F)cc1)S(=O)(=O)c1ccc2c(c1)CCN(C(=O)C1CC1)C2` [Example 21, (S)-2-(cyclopropanecarbonyl)-N-ethyl-N-(1-(4-(trifluoromethyl)phenyl)ethyl)-1,2,3,4-tetrahydroisoquinoline-6-sulfonamide], the IC50 is 3.98 µM.

For the compound `CC(C)C(=O)N1Cc2ccc(S(=O)(=O)N(C)[C@@H](C)c3ccccc3)cc2C1` [Example 40, (S)-2-isobutyryl-N-methyl-N-(1-phenylethyl)isoindoline-5-sulfonamide], the IC50 is 2.88 µM.

(Values after patent publication US20250136552A1, “ANTAGONISTS OF CAV 2.3” (LARIO THERAPEUTICS LIMITED, priority 2021, published 2025).)
